Read-outs that look alike come from different tables or passages of the source.
Molecular target: T1, Zcchc11 enzyme (Homo sapiens, UniProt Q5TAX3)
T1 construct: made in house; host or cells: HEK293 cells (Zcchc11); E. coli Rosetta II (LIN28A)
T1 sequence (Q5TAX3 212-1420): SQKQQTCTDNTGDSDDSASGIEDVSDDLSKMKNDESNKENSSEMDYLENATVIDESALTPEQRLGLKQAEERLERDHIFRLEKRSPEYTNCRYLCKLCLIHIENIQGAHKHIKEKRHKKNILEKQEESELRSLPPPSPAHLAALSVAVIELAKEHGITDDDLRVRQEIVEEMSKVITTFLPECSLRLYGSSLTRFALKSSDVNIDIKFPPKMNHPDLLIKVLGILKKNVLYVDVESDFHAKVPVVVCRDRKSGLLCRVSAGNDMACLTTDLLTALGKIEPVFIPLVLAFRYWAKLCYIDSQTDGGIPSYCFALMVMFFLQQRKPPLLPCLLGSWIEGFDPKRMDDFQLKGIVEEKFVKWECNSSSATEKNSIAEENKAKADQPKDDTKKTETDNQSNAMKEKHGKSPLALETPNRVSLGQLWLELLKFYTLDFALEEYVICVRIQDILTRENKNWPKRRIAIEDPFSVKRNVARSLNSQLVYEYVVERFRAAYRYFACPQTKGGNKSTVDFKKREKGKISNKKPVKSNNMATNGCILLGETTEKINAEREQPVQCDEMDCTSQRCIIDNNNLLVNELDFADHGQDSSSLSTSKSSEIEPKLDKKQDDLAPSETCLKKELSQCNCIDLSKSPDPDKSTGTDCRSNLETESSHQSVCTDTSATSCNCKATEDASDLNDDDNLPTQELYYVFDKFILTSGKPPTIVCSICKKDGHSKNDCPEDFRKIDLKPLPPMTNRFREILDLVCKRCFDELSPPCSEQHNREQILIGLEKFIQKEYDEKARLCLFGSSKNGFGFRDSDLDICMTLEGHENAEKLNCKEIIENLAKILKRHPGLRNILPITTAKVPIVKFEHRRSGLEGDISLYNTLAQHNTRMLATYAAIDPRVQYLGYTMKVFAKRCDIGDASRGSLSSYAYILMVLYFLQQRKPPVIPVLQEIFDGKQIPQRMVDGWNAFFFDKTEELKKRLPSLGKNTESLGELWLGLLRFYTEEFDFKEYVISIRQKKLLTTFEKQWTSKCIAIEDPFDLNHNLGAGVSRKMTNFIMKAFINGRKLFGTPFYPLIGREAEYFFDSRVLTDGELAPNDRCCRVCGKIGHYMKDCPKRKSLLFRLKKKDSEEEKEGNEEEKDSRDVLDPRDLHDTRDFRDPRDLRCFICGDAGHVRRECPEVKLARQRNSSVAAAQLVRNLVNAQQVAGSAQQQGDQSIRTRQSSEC
Assay: TUTase assay (Zcchc11 assay, Lin28a-dependent polyuridylation of pre-let-7)
Assay type: biochemical
Details: read-out: Potency Lin28a-dep Z11 IC50
In short: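 Readout: time-dependent quench of 5′-fluorescein pre-let-7 (2 nM) as 3′-rhodamine A20 probe anneals to poly(U) tails. Enzyme 0.2 nM Zcchc11 (res. 212-1420), LIN28A 10 nM, UTP 5 uM; pH 7.3 HEPES, 150 mM KCl, 5 mM MgCl2, RT. 4-parameter IC50; 100% = DMSO, 0% = no UTP.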

[1] = Lin28a-dependent Zcchc11 (Z11) TUTase assay
[2] = Lin28a-dependent Zcchc11 (Z11) TUTase activity
[3] = LIN28A 10 nM, Zcchc11 0.2 nM, 5′-fluorescein pre-let-7 miRNA 2 nM, UTP 5 uM, room temperature, 30 minutes pre-incubation

Compound | IC50 [1] | IC50 [2] | other results
Cc1ccc(F)c(OC[C@H]2C[C@H]3C[C@H]3N2c2cc3c(cc2Cl)c(=O)c(C(=O)O)cn3-c2ccc(N(C)C)nc2)n1 [Compound 343, 6-Chloro-1-[6-(dimethyl-amino)pyridin-3-yl]-7-[(1R,3R,5R)-3-{[(3-fluoro-6-methylpyridin-2-yl)oxy]methyl}-2-azabicyclo [3.1.0]hexan-2-yl]-4-oxoquinoline-3-carboxylic acid] |  | ≤ 1000 nM | 
CN(C)C1CN(c2ccc(-n3cc(C(=O)O)c(=O)c4cc(F)c(N5C[C@@H](c6cccnc6)C[C@@H]5COc5ncccc5Cl)cc43)cn2)C1 [Example 62, 7-[(2R,4R)-2-[[(3-chloropyridin-2-yl)oxy]methyl]-4-(pyridin-3-yl)pyrrolidin-1-yl]-1-[6-[3-(dimethylamino)azetidin-1-yl]pyridin-3-yl]-6-fluoro-4-oxoquinoline-3-carboxylic acid] |  |  | IC50 [3]: ≤ 1000 nM
O=C(O)c1cn(C2CC2)c2c(F)c(N3CCC[C@@H]3COc3cccnn3)c(F)cc2c1=O [Example 29, (R)-1-cyclopropyl-6,8-difluoro-4-oxo-7-(2-((pyridazin-3-yloxy)methyl)pyrrolidin-1-yl)-1,4-dihydroquinoline-3-carboxylic acid] |  |  | IC50 [3]: 1000 to 10000 nM
Cc1cccc(-n2cc(C(=O)O)c(=O)c3cc(F)c(N4CCC[C@@H]4COc4ccccn4)cc32)c1 [Compound 155, (R)-6-fluoro-4-oxo-7-(2-((pyridin-2-yloxy)methyl)pyrrolidin-1-yl)-1-(m-tolyl)-1,4-dihydro-quinoline-3-carboxylic acid] |  | ≤ 1000 nM | 
CN(C)C1CN(c2ccc(-n3cc(C(=O)O)c(=O)c4ccc(N5C(=O)CC[C@@H]5COc5ncccc5Cl)cc43)cn2)C1 [Compound 249, (R)-7-(2-(((3-chloropyridin-2-yl)oxy)methyl)-5-oxopyrrolidin-1-yl)-1-(6-(3-(dimethyl-amino)azetidin-1-yl)pyridin-3-yl)-4-oxo-1,4-dihydro-quinoline-3-carboxylic acid] |  | 1000 to 10000 nM | 
Cn1cc(-n2cc(C(=O)O)c(=O)c3cc(C#N)c(N4CCC[C@@H]4COc4ncccc4F)nc32)cn1 (racemic) [Compound 183, rac-(R)-6-cyano-7-(2-(((3-fluoropyridin-2-yl)oxy)methyl)pyrrolidin-1-yl)-1-(1-methyl-1H-pyrazol-4-yl)-4-oxo-1,4-dihydro-1,8-naphthyridine-3-carboxylic acid] |  | 1000 to 10000 nM | 
CN(C)C1CN(c2ccc(-n3cc(C(=O)O)c(=O)c4cc(Cl)c(N5CC(c6ncccn6)C[C@@H]5COc5ncccc5Cl)cc43)cn2)C1 (stereo partly drawn) [Compound 346, 6-chloro-7-((2R)-2-(((3-chloropyridin-2-yl)oxy)methyl)-4-(pyrimidin-2-yl)pyrrolidin-1-yl)-1-(6-(3-(dimethyl-amino)azetidin-1-yl)pyridin-3-yl)-4-oxo-1,4-dihydro-quinoline-3-carboxylic acid] |  | ≤ 1000 nM | 
Cc1cccnc1OC[C@H]1CCCN1c1cc2c(cc1F)c(=O)c(C(=O)O)cn2-c1ccc(O)c(Cl)c1 [Compound 122, (R)-1-(3-chloro-4-hydroxy-phenyl)-6-fluoro-7-(2-(((3-methylpyridin-2-yl)oxy)methyl)pyrrolidin-1-yl)-4-oxo-1,4-dihydro-quinoline-3-carboxylic acid] |  | ≤ 1000 nM | 
COc1ccc(F)c(-n2cc(C(=O)O)c(=O)c3cc(F)c(N4CCC[C@@H]4COc4ccccn4)cc32)c1 [Compound 158, (R)-6-fluoro-1-(2-fluoro-5-methoxy-phenyl)-4-oxo-7-(2-((pyridin-2-yloxy)methyl)pyrrolidin-1-yl)-1,4-dihydro-quinoline-3-carboxylic acid] |  | 1000 to 10000 nM | 
O=C(O)c1cn(-c2cc(F)ccc2Cl)c2cc(N3CCC[C@@H]3COc3ccccn3)c(F)cc2c1=O [Compound 153, (R)-1-(2-chloro-5-fluorophenyl)-6-fluoro-4-oxo-7-(2-((pyridin-2-yloxy)methyl)pyrrolidin-1-yl)-1,4-dihydro-quinoline-3-carboxylic acid] |  | 1000 to 10000 nM | 

Further lines, with some results ahead:

IC50 [1] | IC50 [2] | Compound | other results
≤ 1000 nM |  | CN(C)C1CN(c2ccc(-n3cc(C(=O)O)c(=O)c4cc(F)c(N5CCC[C@]5(C)COc5ncccc5Cl)c(F)c43)cn2)C1 [Example 634, (R)-7-(2-(((3-chloropyridin-2-yl)oxy)methyl)-2-methylpyrrolidin-1-yl)-1-(6-(3-(dimethylamino)azetidin-1-yl)pyridin-3-yl)-6,8-difluoro-4-oxo-1,4-dihydroquinoline-3-carboxylic acid] | 
≤ 1000 nM |  | O=C(O)c1cn(C2CCn3ccnc3C2)c2cc(N3CCC[C@@H]3COc3ncccc3Cl)c(Br)cc2c1=O (stereo partly drawn) [Example 536, 6-bromo-7-((R)-2-(((3-chloropyridin-2-yl)oxy)methyl)pyrrolidin-1-yl)-4-oxo-1-(5,6,7,8-tetrahydroimidazo [1,2-a]pyridin-7-yl)-1,4-dihydroquinoline-3-carboxylic acid] | 
1000 to 10000 nM |  | O=C(O)c1cn(-c2cc(F)ccc2Cl)c2cc(N3CCC[C@@H]3COc3ccccn3)c(F)cc2c1=O [Example 386, (R)-1-(2-chloro-5-fluorophenyl)-6-fluoro-4-oxo-7-(2-((pyridin-2-yloxy)methyl)pyrrolidin-1-yl)-1,4-dihydroquinoline-3-carboxylic acid] | 
≤ 1000 nM |  | Cn1cc(Cn2cc(C(=O)O)c(=O)c3cc(Cl)c(N4CCC[C@@H]4COc4ncccc4Cl)cc32)cn1 [Example 573, (R)-6-chloro-7-(2-(((3-chloropyridin-2-yl)oxy)methyl)pyrrolidin-1-yl)-1-((1-methyl-1H-pyrazol-4-yl)methyl)-4-oxo-1,4-dihydroquinoline-3-carboxylic acid] | 
≤ 1000 nM |  | Cc1cc2c(=O)c(C(=O)O)cn(-c3ccc(N4CC(N(C)C)C4)nc3)c2cc1N1CCC[C@@H]1COc1ncccc1C [Example 545, (R)-1-(6-(3-(dimethylamino)azetidin-1-yl)pyridin-3-yl)-6-methyl-7-(2-(((3-methylpyridin-2-yl)oxy)methyl)pyrrolidin-1-yl)-4-oxo-1,4-dihydroquinoline-3-carboxylic acid] | 
1000 to 10000 nM |  | O=C(O)c1cn(C2CCC2)c2cc(N3CCC[C@@H]3COc3ccccn3)c(F)cc2c1=O [Example 448, (R)-1-cyclobutyl-6-fluoro-4-oxo-7-(2-((pyridin-2-yloxy)methyl)pyrrolidin-1-yl)-1,4-dihydroquinoline-3-carboxylic acid] | 
≤ 1000 nM |  | COc1cccc(-n2cc(C(=O)O)c(=O)c3cc(F)c(N4CCC[C@@H]4COc4ccccn4)cc32)c1 [Example 399, (R)-6-fluoro-1-(3-methoxyphenyl)-4-oxo-7-(2-((pyridin-2-yloxy)methyl)pyrrolidin-1-yl)-1,4-dihydroquinoline-3-carboxylic acid] | 
≤ 1000 nM |  | O=C(O)c1cn(-c2cc3n(n2)CCNC3)c2cc(N3CCC[C@@H]3COc3ncccc3Cl)c(Cl)cc2c1=O [Example 515, (R)-6-chloro-7-(2-(((3-chloropyridin-2-yl)oxy)methyl)pyrrolidin-1-yl)-4-oxo-1-(4,5,6,7-tetrahydropyrazolo [1,5-a]pyrazin-2-yl)-1,4-dihydroquinoline-3-carboxylic acid] | 
≤ 1000 nM |  | CN(C)C1CN(c2ccc(-n3cc(C(=O)O)c(=O)c4cc(F)c(N5CCC[C@@H]5COc5cc(OCc6ccccc6)ccn5)c(F)c43)cn2)C1 [Example 612, (R)-7-(2-(((4-(benzyloxy)pyridin-2-yl)oxy)methyl)pyrrolidin-1-yl)-1-(6-(3-(dimethylamino)azetidin-1-yl)pyridin-3-yl)-6,8 difluoro-4-oxo-1,4-dihydroquinoline-3-carboxylic acid] | 
≤ 1000 nM |  | CN(C)C1CN(c2ccc(-n3cc(C(=O)O)c(=O)c4cc(Cl)c(N5CCC[C@]5(C)COc5ncccc5Cl)cc43)cn2)C1 [Example 627, (R)-6-chloro-7-(2-(((3-chloropyridin-2-yl)oxy)methyl)-2-methylpyrrolidin-1-yl)-1-(6-(3-(dimethylamino)azetidin-1-yl)pyridin-3-yl)-4-oxo-1,4-dihydroquinoline-3-carboxylic acid] | 
